PubChem BioAssay (NCI)
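Assay format: 96-well plates, 48-hour exposure. Definition used: TGI = concentration required for complete inhibition of growth.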

How the values were obtained:
Assay in all cases: NCI tumour cell line growth inhibition, 48 h
[1] = system: 786-0 renal
[2] = system: A498 renal
[3] = system: A549 NSCLC
[4] = system: ACHN renal
[5] = system: BT-549 breast
[6] = system: CAKI-1 renal
[7] = system: CCRF-CEM leukemia
[8] = system: COLO 205 colon
[9] = system: DU-145 prostate
[10] = system: EKVX NSCLC
[11] = system: HCC-2998 colon
[12] = system: HCT-116 colon
[13] = system: HCT-15 colon
[14] = system: HL-60(TB) leukemia
[15] = system: HOP-62 NSCLC
[16] = system: HOP-92 NSCLC
[17] = system: HS 578T breast
[18] = system: HT29 colon
[19] = system: IGROV1 ovarian
[20] = system: K-562 leukemia
[21] = system: KM12 colon
[22] = system: LOX IMVI melanoma
[23] = system: M14 melanoma
[24] = system: MALME-3M melanoma
[25] = system: MCF7 breast
[26] = system: MDA-MB-231 breast
[27] = system: MDA-MB-435
[28] = system: MDA-N
[29] = system: MOLT-4 leukemia
[30] = system: NCI-H226 lung
[31] = system: NCI-H23 lung
[32] = system: NCI-H460 lung
[33] = system: NCI-H522 lung
[34] = system: NCI/ADR-RES ovarian
[35] = system: OVCAR-3 ovarian
[36] = system: OVCAR-4 ovarian
[37] = system: OVCAR-5 ovarian
[38] = system: OVCAR-8 ovarian
[39] = system: PC-3 prostate
[40] = system: RPMI-8226 leukemia
[41] = system: RXF 393 renal
[42] = system: SF-268 CNS
[43] = system: SF-295 CNS
[44] = system: SF-539 CNS
[45] = system: SK-MEL-2 melanoma
[46] = system: SK-MEL-28 melanoma
[47] = system: SK-MEL-5 melanoma
[48] = system: SK-OV-3 ovarian
[49] = system: SN12C renal
[50] = system: SNB-19 CNS
[51] = system: SNB-75 CNS
[52] = system: SR leukemia
[53] = system: SW-620 colon
[54] = system: T-47D breast
[55] = system: TK-10 renal
[56] = system: U251 CNS
[57] = system: UACC-257 melanoma
[58] = system: UACC-62 melanoma
[59] = system: UO-31 renal

COc1ccc(NC(=S)N=Nc2c(O)[nH]c3ccccc23)cc1
TGI [1]: > 55.9 µM
TGI [2]: > 83.3 µM
TGI [3]: > 100 µM
TGI [4]: > 95.4 µM
TGI [5]: 33.2 µM
TGI [6]: 98.3 µM
TGI [7]: > 100 µM
TGI [8]: > 100 µM
TGI [9]: > 100 µM
TGI [10]: > 100 µM
TGI [11]: > 100 µM
TGI [12]: > 100 µM
TGI [13]: > 100 µM
TGI [14]: > 100 µM
TGI [15]: > 45.5 µM
TGI [16]: > 78.7 µM
TGI [17]: > 100 µM
TGI [18]: > 100 µM
TGI [19]: > 100 µM
TGI [20]: > 100 µM
TGI [21]: > 100 µM
TGI [22]: > 100 µM
TGI [23]: > 100 µM
TGI [24]: > 42.8 µM
TGI [25]: > 100 µM
TGI [26]: > 90.8 µM
TGI [27]: > 100 µM
TGI [28]: > 100 µM
TGI [29]: > 100 µM
TGI [30]: > 100 µM
TGI [31]: > 100 µM
TGI [32]: > 100 µM
TGI [33]: > 100 µM
TGI [34]: > 42.6 µM
TGI [35]: > 58.6 µM
TGI [36]: > 95.2 µM
TGI [37]: > 100 µM
TGI [38]: > 76.2 µM
TGI [39]: > 70 µM
TGI [40]: > 100 µM
TGI [41]: > 61 µM
TGI [42]: > 100 µM
TGI [43]: > 58.5 µM
TGI [44]: > 70.4 µM
TGI [45]: > 76.4 µM
TGI [46]: > 100 µM
TGI [47]: > 100 µM
TGI [48]: > 68.8 µM
TGI [49]: > 89 µM
TGI [50]: > 100 µM
TGI [51]: > 78.8 µM
TGI [52]: > 100 µM
TGI [53]: > 100 µM
TGI [54]: > 100 µM
TGI [55]: > 79 µM
TGI [56]: > 59.9 µM
TGI [57]: > 100 µM
TGI [58]: > 100 µM
TGI [59]: > 100 µM
